Experimental data taken from ChEMBL document CHEMBL3425465, “Synthesis, antimalarial and antitubercular activities of meridianin derivatives” (Eur J Med Chem, 2015).
Values after ≈ are worked out from the molar mass of the structure shown.

How the values were obtained:
[1] = Retention time of the compound by HPLC analysis; assay type: physicochemical
Plasmodium falciparum [2] = assay: Antiplasmodial activity against Plasmodium falciparum W2 infected in human RBC assessed as parasite growth inhibition measured as LDH activity after 72 hrs by plate reader analysis; assay type: functional, organism-based
Plasmodium falciparum [3] = assay: Antiplasmodial activity against Plasmodium falciparum D6 infected in human RBC assessed as parasite growth inhibition measured as LDH activity after 72 hrs by plate reader analysis; assay type: functional, organism-based
BT-549 = assay: Cytotoxicity against human BT549 cells assessed as cell growth inhibition after 48 hrs by neutral red assay; assay type: cell-based; conditions: BT-549, 48 h
SK-OV-3 = assay: Cytotoxicity against human SKOV3 cells assessed as cell growth inhibition after 48 hrs by neutral red assay; assay type: cell-based; conditions: SK-OV-3, 48 h
[4] = Selectivity index, ratio of IC50 for pig LLC-PK1 cells to IC50 for Plasmodium falciparum W2
[5] = Selectivity index, ratio of IC50 for African green monkey VERO cells to IC50 for Plasmodium falciparum D6
Vero = assay: Cytotoxicity against African green monkey Vero cells assessed as cell growth inhibition after 48 hrs by neutral red assay; assay type: cell-based; conditions: Chlorocebus sabaeus
[6] = Selectivity index, ratio of IC50 for African green monkey VERO cells to IC50 for Plasmodium falciparum W2
SK-MEL = assay: Cytotoxicity against human SK-MEL cells assessed as cell growth inhibition after 48 hrs by neutral red assay; assay type: cell-based
[7] = Selectivity index, ratio of IC50 for pig LLC-PK1 cells to IC50 for Plasmodium falciparum D6
KB = assay: Cytotoxicity against human KB cells assessed as cell growth inhibition after 48 hrs by neutral red assay; assay type: cell-based
LLC-PK1 = assay: Cytotoxicity against pig LLC-PK1 cells assessed as cell growth inhibition after 48 hrs by neutral red assay; assay type: cell-based; conditions: Sus scrofa, LLC-PK1, 48 h
[8] = system: Mycobacterium tuberculosis; assay: Antitubercular activity against Mycobacterium tuberculosis H37Rv assessed as […] inhibition after 7 days by broth microdilution assay; assay type: functional; conditions: 168 h
[9] = Plasmodium falciparum, W2, 72 h, read-out: IC50
[10] = Plasmodium falciparum, W2, 72 h, read-out: pIC50 (converted)
[11] = Plasmodium falciparum, D6, 72 h, read-out: IC50
[12] = Plasmodium falciparum, D6, 72 h, read-out: pIC50 (converted)

Nc1nccc(-c2cn(S(=O)(=O)c3ccc(C(F)(F)F)cc3)c3ccccc23)n1
Retention_time [1]: 9.15 min | IC50 (Plasmodium falciparum [2]): Not Active | IC50 (Plasmodium falciparum [3]): Not Active

Nc1nccc(-c2cn(S(=O)(=O)c3ccc(C(F)(F)F)cc3)c3ccc(Br)cc23)n1
Retention_time [1]: 9.54 min | IC50 (Plasmodium falciparum [2]; [9]): 9.41 µM | IC50 (Plasmodium falciparum [2]; [10]): 9.42 µM | IC50 (BT-549): > 50 µM | IC50 (SK-OV-3): > 50 µM | Ratio IC50 [4]: >5.3 | Ratio IC50 [5]: >5.6 | IC50 (Plasmodium falciparum [3]; [11]): 8.92 µM | IC50 (Plasmodium falciparum [3]; [12]): 8.91 µM | IC50 (Vero): > 50 µM | Ratio IC50 [6]: >5.3 | IC50 (SK-MEL): > 50 µM | Ratio IC50 [7]: >5.6 | IC50 (KB): > 50 µM | IC50 (LLC-PK1): > 50 µM

Nc1nccc(-c2cn(S(=O)(=O)c3cc(C(F)(F)F)cc(C(F)(F)F)c3)c3ccccc23)n1
Retention_time [1]: 7.87 min | IC50 (Plasmodium falciparum [2]): Not Active | IC50 (Plasmodium falciparum [3]): Not Active

Nc1nccc(-c2cn(S(=O)(=O)c3cc(C(F)(F)F)cc(C(F)(F)F)c3)c3ccc(Br)cc23)n1
Retention_time [1]: 10.48 min | IC50 (Plasmodium falciparum [2]): Not Active | IC50 (Plasmodium falciparum [3]): Not Active

Nc1nccc(-c2cn(S(=O)(=O)c3ccc4c(c3)OCCO4)c3ccccc23)n1
Retention_time [1]: 8.02 min | IC50 (Plasmodium falciparum [2]): Not Active | IC50 (Plasmodium falciparum [3]): Not Active

Nc1nccc(-c2cn(S(=O)(=O)c3ccc4c(c3)OCCO4)c3ccc(Br)cc23)n1
Retention_time [1]: 8 min | IC50 (Plasmodium falciparum [2]): Not Active | IC50 (Plasmodium falciparum [3]): Not Active

Nc1nccc(-c2cn(S(=O)(=O)c3ccc(OC(F)(F)F)cc3)c3ccc(Br)cc23)n1
Retention_time [1]: 9.54 min | IC50 (Plasmodium falciparum [2]): Not Active | IC50 (Plasmodium falciparum [3]): Not Active | MIC90 [8]: 62.5 µM (≈ 32.1 µg/mL)

Nc1nccc(-c2cn(S(=O)(=O)c3ccc(F)cc3F)c3ccccc23)n1
Retention_time [1]: 7.32 min | IC50 (Plasmodium falciparum [2]): Not Active | IC50 (Plasmodium falciparum [3]): Not Active

Nc1nccc(-c2cn(S(=O)(=O)c3ccc4ccccc4c3)c3ccccc23)n1
Retention_time [1]: 8.31 min | IC50 (Plasmodium falciparum [2]): Not Active | IC50 (Plasmodium falciparum [3]): Not Active

COc1ccc(S(=O)(=O)n2cc(-c3ccnc(N)n3)c3ccccc32)cc1OC
Retention_time [1]: 6.92 min | IC50 (Plasmodium falciparum [2]): Not Active | IC50 (Plasmodium falciparum [3]): Not Active

CC(=O)Nc1ccc(S(=O)(=O)n2cc(-c3ccnc(N)n3)c3cc(Br)ccc32)cc1
Retention_time [1]: 6.95 min | IC50 (Plasmodium falciparum [2]; [9]): 9.14 µM | IC50 (Plasmodium falciparum [2]; [10]): 9.14 µM | IC50 (BT-549): > 51 µM | IC50 (SK-OV-3): > 51 µM | Ratio IC50 [4]: >5.6 | Ratio IC50 [5]: >5.5 | IC50 (Plasmodium falciparum [3]; [11]): 9.33 µM | IC50 (Plasmodium falciparum [3]; [12]): 9.33 µM | IC50 (Vero): > 51 µM | Ratio IC50 [6]: >5.6 | IC50 (SK-MEL): > 51 µM | Ratio IC50 [7]: >5.5 | IC50 (KB): > 51 µM | IC50 (LLC-PK1): > 51 µM

Nc1nccc(-c2cn(S(=O)(=O)c3ccc(Cl)cc3Cl)c3ccccc23)n1
Retention_time [1]: 9.08 min | IC50 (Plasmodium falciparum [2]): Not Active | IC50 (Plasmodium falciparum [3]): Not Active

Nc1nccc(-c2cn(S(=O)(=O)c3ccc(Br)cc3)c3ccccc23)n1
Retention_time [1]: 8.45 min | IC50 (Plasmodium falciparum [2]): Not Active | IC50 (Plasmodium falciparum [3]): Not Active

COc1ccc(Br)cc1S(=O)(=O)n1cc(-c2ccnc(N)n2)c2ccccc21
Retention_time [1]: 8.38 min | IC50 (Plasmodium falciparum [2]): Not Active | IC50 (Plasmodium falciparum [3]): Not Active

Nc1nccc(-c2cn(S(=O)(=O)c3ccc(I)cc3)c3ccccc23)n1
Retention_time [1]: 8.8 min | IC50 (Plasmodium falciparum [2]): Not Active | IC50 (Plasmodium falciparum [3]): Not Active

Cc1ccsc1C(=O)n1cc(-c2ccnc(N)n2)c2ccccc21
Retention_time [1]: 8.48 min | MIC90 [8]: 192 µM (≈ 64.1 µg/mL)

O=C1NC(c2c[nH]c3ccc(I)cc23)Nc2ccccc21 (stereo unspecified)
MIC90 [8]: 5.2 µM (≈ 2.02 µg/mL)

Nc1nccc(-c2c[nH]c3ccccc23)n1
Ratio IC50 [4]: >24.1 | Ratio IC50 [5]: >12.3 | Ratio IC50 [6]: >26.8 | MIC90 [8]: 305 µM (≈ 64.1 µg/mL) | Ratio IC50 [7]: >11.1

COc1cccc2c1C(=O)c1c(O)c3c(c(O)c1C2=O)C[C@@](O)(C(=O)CO)C[C@@H]3O[C@H]1C[C@H](N)[C@H](O)[C@H](C)O1 [DOXORUBICIN]
IC50 (BT-549): 1.6 µM | IC50 (Vero): > 9 µM

Nc1nccc(-c2c[nH]c3ccc(Br)cc23)n1 [MERIDIANIN C]
Ratio IC50 [4]: >7.4 | Ratio IC50 [5]: >6 | Ratio IC50 [6]: >7.4 | MIC90 [8]: 111 µM (≈ 32.1 µg/mL) | Ratio IC50 [7]: >6

CO[C@H]1/C=C/O[C@@]2(C)Oc3c(C)c(O)c4c(O)c(c(/C=N/N5CCN(C)CC5)c(O)c4c3C2=O)NC(=O)/C(C)=C\C=C\[C@H](C)[C@H](O)[C@@H](C)[C@@H](O)[C@@H](C)[C@H](OC(C)=O)[C@@H]1C [RIFAMPIN]
MIC90 [8]: 0.07 µM (≈ 0.0576 µg/mL)
